According to patent publication US4190646A, “Polypeptide compositions and methods” (Sloan-Kettering Institute for Cancer Research, priority 1979, dated 1980):
Where a SMILES comes first, the peptide text is derived from it.

Columns and labels:
CR^+ B cells = experiment: induction in vitro of CR+ B cell differentiation from CR- B cell precursors; assay type: cell-based, nu/nu mice; conditions: concentrations of 0.01 ng to 10 μg/ml
Protocol: To determine the activity and characteristics of the polypeptide, determinations were carried out on healthy 5-6 weeks nu/nu mice of both sexes, the mice being bred on a BALB/c background (thymocytes expressing Thy-1.2 surface antigen) and maintained under conventional conditions. For the antisera, anti Thy-1.2 sera were prepared in Thy-1 congenic mice.
For the induction in vitro of Thy-1^+ T cells or CR^+ B cell differentiation, the induction of thymocyte differentiation from prothymocytes in vitro was performed as described by Komuro and Boyse, (Lancet, 1, 740, 1973), using the acquisition of Thy-1.2 as a marker of T cell differentiation. The induction of CR^+ B cell differentiation from CR^- B cell precursors in vitro was performed under similar conditions using as the assay criterion, the capacity of CR^+ cells to bind sheep erythrocytes coated with subagglutinating quantities of rabbit antibody and nonlytic complement. Spleen cell populations from healthy nu/nu mice fractionated on discontinuous bovine serum albumin gradients were used as the source of both precursor types (Thy-1^- and CR^-) because they have few or no Thy-1^+ cells and low numbers of CR^+ cells.

[1] = test system: neuromuscular transmission; experiment: neuromuscular transmission assessed by electromyography after injection; assay type: in vivo; conditions: mice, single injection of 10-100 μg peptide in saline intraperitoneally, 24 hours later
Protocol: To determine the effect of this peptide on neuromuscular transmission, mice were injected with 10-100 μg peptide in N saline intraperitoreally. Twenty-four hours later, neuromuscular transmission was assessed by electromyography as described in Lancet, Vol. 12, pps. 256-259, 1975.

[2] = activity compared with the basic pentapeptide of Example I, in Twomey solution; conditions: 1 μg/ml in 89% Twomey solution

| SMILES | induction of differentiation of CR+ B cells (CR^+ B cells) | neuromuscular transmission impairment by electromyography [1] | maximum activity compared with the basic pentapeptide of Example I [2] | minimum activity compared with the basic pentapeptide of Example I [2] |
| --- | --- | --- | --- | --- |
| CC(C)[C@H](NC(=O)[C@H](CC(=O)O)NC(=O)[C@H](CCCCN)NC(=O)[C@@H](N)CCCNC(=N)N)C(=O)N[C@@H](Cc1ccc(O)cc1)C(=O)O [Example I, H2 N-ARG-LYS-ASP-VAL-TYR-COOH] (H-RKDVY-OH) | did not induce | detectable neuromuscular impairment | – | – |
| CC(C)[C@H](NC(=O)[C@H](CC(=O)O)NC(=O)[C@H](CCCCN)NC(=O)[C@@H](N)CCCNC(=N)N)C(=O)N[C@@H](Cc1ccc(O)cc1)C(N)=O [Example IV, H2 N-ARG-LYS-ASP-VAL-TYR-CONH2] (H-RKDVY-NH2) | – | – | 105% | 70% |
